Test results from article PMC3382171 (PLoS ONE, 2012).
Like-named read-outs stand apart in the source and are kept apart here.

Key:
Experiment in all cases: biochemical
DYRK3 [1] = target: T1, DYRK3 (Homo sapiens, UniProt O43781); settings: read-out: Dundee KSS % inhibition at 1uM
Description: (§1) The METi and RAFi were screened against kinase panels (SelectScreen, Invitrogen; University of Dundee, Division of Signal Transduction Therapy, UK; Upstate Biotechnology/Millipore, Billerica, MA). In these selectivity assays the concentration of ATP was set to the Km value of ATP for each kinase tested to allow for a relative potency comparison between the various kinases. The compounds were tested at 1 µM final concentration. […] (A) Kinase selectivity screen (KSS) performed at Upstate Biotechnology. […] (B) KSS performed at University of Dundee (Division of Signal Transduction Therapy). […] (PDF) Click here for additional data file.

SGK = target: T2, SGK (Homo sapiens, UniProt O00141); settings: read-out: Dundee KSS % inhibition at 1uM
T2 construct: gene SGK1
Description: as §1

PKD1 [2] = target: T3, PKD1 (Homo sapiens, UniProt Q15139); settings: read-out: Dundee KSS % inhibition at 1uM
T3 construct: gene PRKD1
Description: as §1

NEK6 [3] = target: T4, NEK6 (Homo sapiens, UniProt Q9HC98); settings: read-out: Dundee KSS % inhibition at 1uM
Description: as §1

SRPK1 = SRPK1 (Homo sapiens, UniProt Q96SB4); settings: read-out: Dundee KSS % inhibition at 1uM
Description: as §1

AuroraC = target: T5, AuroraC (Homo sapiens, UniProt Q9UQB9); settings: read-out: Dundee KSS % inhibition at 1uM
T5 construct: gene AURKC
Description: as §1

MSK1 = target: T6, MSK1 (Homo sapiens, UniProt O75582); design: University of Dundee kinase panel, percent inhibition of phosphorylation at 1 uM RAFi, ATP at Km; settings: read-out: Dundee KSS %inh at 1 uM
T6 construct: gene RPS6KA5
Description: (§2) The METi and RAFi were screened against kinase panels (SelectScreen, Invitrogen; University of Dundee, Division of Signal Transduction Therapy, UK; Upstate Biotechnology/Millipore, Billerica, MA). In these selectivity assays the concentration of ATP was set to the Km value of ATP for each kinase tested to allow for a relative potency comparison between the various kinases. The compounds were tested at 1 µM final concentration. […] Supplementary file pone.0039653.s002.pdf: Figure S2 Kinase Selectivity Screen of RAFi. (A) Kinase selectivity screen (KSS) performed at University of Dundee (Division of Signal Transduction Therapy). Values in % inhibition of phosphorylation given 1 µM of RAFi compared to control. (B) KSS performed at Invitrogen (Selectscreen Service) compared to control. Values in % inhibition of phosphorylation given 1 µM of RAFi. (C) Cell based dose response kinase inhibition of indicated kinases by RAFi. (PDF) Click here for additional data file.

DYRK3 [4] = target: T1, DYRK3; design: University of Dundee kinase panel, percent inhibition of phosphorylation at 1 uM RAFi, ATP at Km; settings: read-out: Dundee KSS %inh at 1 uM
Description: as §2

PIM3 = PIM3 (Homo sapiens, UniProt Q86V86); design: University of Dundee kinase panel, percent inhibition of phosphorylation at 1 uM RAFi, ATP at Km; settings: read-out: Dundee KSS %inh at 1 uM
Description: as §2

PKCa = target: T7, PKCa (Homo sapiens, UniProt P17252); design: University of Dundee kinase panel, percent inhibition of phosphorylation at 1 uM RAFi, ATP at Km; settings: read-out: Dundee KSS %inh at 1 uM
T7 construct: gene PRKCA
Description: as §2

PKD1 [5] = target: T3, PKD1; design: University of Dundee kinase panel, percent inhibition of phosphorylation at 1 uM RAFi, ATP at Km; settings: read-out: Dundee KSS %inh at 1 uM
Description: as §2

JNK2 = target: T8, JNK2 (Homo sapiens, UniProt P45984); design: University of Dundee kinase panel, percent inhibition of phosphorylation at 1 uM RAFi, ATP at Km; settings: read-out: Dundee KSS %inh at 1 uM
T8 construct: gene MAPK9
Description: as §2

NEK6 [6] = target: T4, NEK6; design: University of Dundee kinase panel, percent inhibition of phosphorylation at 1 uM RAFi, ATP at Km; settings: read-out: Dundee KSS %inh at 1 uM
Description: as §2

CKIIa = target: T9, CKIIa (Homo sapiens, UniProt P68400); design: University of Dundee kinase panel, percent inhibition of phosphorylation at 1 uM RAFi, ATP at Km; settings: read-out: Dundee KSS %inh at 1 uM
T9 construct: gene CSNK2A1
Description: as §2

PRK2 = target: T10, PRK2 (Homo sapiens, UniProt Q16513); design: University of Dundee kinase panel, percent inhibition of phosphorylation at 1 uM RAFi, ATP at Km; settings: read-out: Dundee KSS %inh at 1 uM
T10 construct: gene PKN2
Description: as §2

p38 = target: T11, p38 (Homo sapiens, UniProt Q16539); design: University of Dundee kinase panel, percent inhibition of phosphorylation at 1 uM RAFi, ATP at Km; settings: read-out: Dundee KSS %inh at 1 uM
T11 construct: gene MAPK14
Description: as §2

PLK1 = PLK1 (Homo sapiens, UniProt P53350); design: University of Dundee kinase panel, percent inhibition of phosphorylation at 1 uM RAFi, ATP at Km; settings: read-out: Dundee KSS %inh at 1 uM
Description: as §2

CAMKKB = target: T12, CAMKKB (Homo sapiens, UniProt Q96RR4); design: University of Dundee kinase panel, percent inhibition of phosphorylation at 1 uM RAFi, ATP at Km; settings: read-out: Dundee KSS %inh at 1 uM
T12 construct: gene CAMKK2
Description: as §2

CDK2 = CDK2 (Homo sapiens, UniProt P24941); design: University of Dundee kinase panel, percent inhibition of phosphorylation at 1 uM RAFi, ATP at Km; settings: read-out: Dundee KSS %inh at 1 uM
Description: as §2

T4 sequence (Q9HC98 whole entry): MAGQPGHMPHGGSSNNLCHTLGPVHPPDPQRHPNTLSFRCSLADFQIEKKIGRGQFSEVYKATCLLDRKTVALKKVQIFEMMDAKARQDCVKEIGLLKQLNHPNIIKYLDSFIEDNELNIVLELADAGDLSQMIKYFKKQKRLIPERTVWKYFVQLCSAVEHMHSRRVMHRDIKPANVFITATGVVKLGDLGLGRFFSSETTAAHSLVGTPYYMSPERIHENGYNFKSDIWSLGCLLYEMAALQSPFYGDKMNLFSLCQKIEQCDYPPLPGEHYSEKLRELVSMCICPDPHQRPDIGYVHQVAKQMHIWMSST
T3 sequence (Q15139 whole entry): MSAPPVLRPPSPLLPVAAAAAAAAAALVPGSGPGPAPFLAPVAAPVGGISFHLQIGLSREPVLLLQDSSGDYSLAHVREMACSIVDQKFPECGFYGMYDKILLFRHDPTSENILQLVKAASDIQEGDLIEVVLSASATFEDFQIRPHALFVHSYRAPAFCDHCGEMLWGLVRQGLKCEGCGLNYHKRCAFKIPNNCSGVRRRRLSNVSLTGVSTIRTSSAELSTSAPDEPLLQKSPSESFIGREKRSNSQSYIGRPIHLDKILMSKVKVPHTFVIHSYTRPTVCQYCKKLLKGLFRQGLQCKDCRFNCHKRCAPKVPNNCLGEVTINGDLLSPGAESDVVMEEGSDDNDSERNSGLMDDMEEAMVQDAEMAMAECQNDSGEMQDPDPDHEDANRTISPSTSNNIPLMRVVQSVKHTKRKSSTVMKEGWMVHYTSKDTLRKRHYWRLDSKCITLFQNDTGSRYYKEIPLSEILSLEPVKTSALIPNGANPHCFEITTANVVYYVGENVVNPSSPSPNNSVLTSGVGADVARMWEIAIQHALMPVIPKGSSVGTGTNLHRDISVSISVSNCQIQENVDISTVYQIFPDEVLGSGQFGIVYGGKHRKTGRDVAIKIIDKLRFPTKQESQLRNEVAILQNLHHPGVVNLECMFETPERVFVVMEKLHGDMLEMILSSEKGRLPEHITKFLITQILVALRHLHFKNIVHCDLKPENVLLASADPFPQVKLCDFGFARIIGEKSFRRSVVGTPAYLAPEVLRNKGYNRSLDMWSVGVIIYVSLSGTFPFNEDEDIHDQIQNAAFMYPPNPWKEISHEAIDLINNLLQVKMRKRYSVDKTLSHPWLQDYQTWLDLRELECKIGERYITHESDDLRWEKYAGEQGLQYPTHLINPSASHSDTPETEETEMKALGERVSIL
T1 sequence (O43781 whole entry): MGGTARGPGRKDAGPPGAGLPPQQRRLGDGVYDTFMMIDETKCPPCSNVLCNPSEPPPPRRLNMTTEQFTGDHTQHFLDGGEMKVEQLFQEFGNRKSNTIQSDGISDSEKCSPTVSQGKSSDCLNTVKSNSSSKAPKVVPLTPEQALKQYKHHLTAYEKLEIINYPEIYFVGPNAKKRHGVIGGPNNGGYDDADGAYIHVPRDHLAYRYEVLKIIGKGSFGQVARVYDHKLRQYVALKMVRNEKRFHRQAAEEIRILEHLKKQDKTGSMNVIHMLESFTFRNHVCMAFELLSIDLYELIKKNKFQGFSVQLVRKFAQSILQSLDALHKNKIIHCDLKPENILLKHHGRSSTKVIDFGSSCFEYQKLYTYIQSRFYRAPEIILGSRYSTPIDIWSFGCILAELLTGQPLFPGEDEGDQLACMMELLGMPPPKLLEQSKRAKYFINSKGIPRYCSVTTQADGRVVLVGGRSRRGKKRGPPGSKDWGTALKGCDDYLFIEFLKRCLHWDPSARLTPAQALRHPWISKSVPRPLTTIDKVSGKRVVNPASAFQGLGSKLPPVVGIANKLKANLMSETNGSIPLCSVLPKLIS
T12 sequence (Q96RR4 whole entry): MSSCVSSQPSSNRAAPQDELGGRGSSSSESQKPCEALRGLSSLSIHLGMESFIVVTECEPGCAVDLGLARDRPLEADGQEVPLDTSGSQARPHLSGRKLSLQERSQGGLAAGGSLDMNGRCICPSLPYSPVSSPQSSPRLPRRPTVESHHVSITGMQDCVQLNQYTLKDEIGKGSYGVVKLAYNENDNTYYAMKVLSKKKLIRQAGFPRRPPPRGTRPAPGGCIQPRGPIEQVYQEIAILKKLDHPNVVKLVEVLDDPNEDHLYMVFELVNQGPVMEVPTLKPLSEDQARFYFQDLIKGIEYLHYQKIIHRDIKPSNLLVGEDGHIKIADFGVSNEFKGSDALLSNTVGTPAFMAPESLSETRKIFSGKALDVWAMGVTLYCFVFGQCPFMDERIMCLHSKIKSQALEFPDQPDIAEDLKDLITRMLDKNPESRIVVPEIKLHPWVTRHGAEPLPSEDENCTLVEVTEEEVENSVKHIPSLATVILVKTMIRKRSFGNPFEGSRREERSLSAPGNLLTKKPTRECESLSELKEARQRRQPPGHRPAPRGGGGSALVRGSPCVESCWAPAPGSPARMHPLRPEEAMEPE
T9 sequence (P68400 whole entry): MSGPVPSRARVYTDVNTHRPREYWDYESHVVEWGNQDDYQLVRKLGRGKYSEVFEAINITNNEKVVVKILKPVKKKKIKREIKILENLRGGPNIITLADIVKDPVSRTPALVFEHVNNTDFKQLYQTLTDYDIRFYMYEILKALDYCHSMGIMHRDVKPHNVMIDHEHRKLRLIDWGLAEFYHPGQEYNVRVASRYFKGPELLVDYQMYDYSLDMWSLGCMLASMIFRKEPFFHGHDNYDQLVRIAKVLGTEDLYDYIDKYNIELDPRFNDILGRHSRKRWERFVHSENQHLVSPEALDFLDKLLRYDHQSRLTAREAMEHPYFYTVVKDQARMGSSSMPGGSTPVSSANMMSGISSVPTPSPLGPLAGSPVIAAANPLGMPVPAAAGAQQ
T10 sequence (Q16513 whole entry): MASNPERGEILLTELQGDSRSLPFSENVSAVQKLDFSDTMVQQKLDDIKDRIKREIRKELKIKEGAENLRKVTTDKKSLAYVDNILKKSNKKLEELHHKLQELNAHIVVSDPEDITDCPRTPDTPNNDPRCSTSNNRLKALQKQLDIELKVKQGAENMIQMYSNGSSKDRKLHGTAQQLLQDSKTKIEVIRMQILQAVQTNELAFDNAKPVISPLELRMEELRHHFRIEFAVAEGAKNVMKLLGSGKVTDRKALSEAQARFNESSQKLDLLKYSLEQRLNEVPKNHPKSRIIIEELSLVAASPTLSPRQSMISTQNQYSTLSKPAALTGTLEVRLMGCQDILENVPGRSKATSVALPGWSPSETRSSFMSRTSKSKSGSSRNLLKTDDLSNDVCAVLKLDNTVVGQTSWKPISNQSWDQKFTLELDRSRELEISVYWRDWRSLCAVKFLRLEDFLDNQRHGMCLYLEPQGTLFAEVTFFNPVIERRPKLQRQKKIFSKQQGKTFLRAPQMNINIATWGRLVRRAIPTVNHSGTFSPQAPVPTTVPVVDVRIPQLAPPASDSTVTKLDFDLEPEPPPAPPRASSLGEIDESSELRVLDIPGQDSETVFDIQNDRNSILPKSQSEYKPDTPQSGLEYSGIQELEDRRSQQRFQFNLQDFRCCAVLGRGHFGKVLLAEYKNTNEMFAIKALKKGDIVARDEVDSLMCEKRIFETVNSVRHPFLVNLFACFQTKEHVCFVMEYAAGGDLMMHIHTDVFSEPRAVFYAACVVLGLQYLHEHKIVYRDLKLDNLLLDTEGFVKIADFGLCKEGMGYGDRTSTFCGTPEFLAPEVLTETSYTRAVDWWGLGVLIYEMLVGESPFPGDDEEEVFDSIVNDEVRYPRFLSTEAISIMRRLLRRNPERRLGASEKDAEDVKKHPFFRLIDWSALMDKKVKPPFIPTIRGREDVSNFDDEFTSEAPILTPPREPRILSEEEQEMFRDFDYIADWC
T2 sequence (O00141 whole entry): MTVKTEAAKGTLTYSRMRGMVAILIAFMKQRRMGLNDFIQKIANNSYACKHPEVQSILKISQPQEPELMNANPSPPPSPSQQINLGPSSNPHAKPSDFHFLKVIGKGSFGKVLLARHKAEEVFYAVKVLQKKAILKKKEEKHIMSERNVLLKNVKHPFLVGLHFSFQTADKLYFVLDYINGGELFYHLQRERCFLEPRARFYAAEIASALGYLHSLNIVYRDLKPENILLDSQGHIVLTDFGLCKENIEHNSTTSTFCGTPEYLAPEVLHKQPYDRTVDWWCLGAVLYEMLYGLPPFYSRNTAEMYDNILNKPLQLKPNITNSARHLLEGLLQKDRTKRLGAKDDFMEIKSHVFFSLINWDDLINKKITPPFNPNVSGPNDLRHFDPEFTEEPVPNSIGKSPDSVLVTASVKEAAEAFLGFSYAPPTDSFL
T11 sequence (Q16539 whole entry): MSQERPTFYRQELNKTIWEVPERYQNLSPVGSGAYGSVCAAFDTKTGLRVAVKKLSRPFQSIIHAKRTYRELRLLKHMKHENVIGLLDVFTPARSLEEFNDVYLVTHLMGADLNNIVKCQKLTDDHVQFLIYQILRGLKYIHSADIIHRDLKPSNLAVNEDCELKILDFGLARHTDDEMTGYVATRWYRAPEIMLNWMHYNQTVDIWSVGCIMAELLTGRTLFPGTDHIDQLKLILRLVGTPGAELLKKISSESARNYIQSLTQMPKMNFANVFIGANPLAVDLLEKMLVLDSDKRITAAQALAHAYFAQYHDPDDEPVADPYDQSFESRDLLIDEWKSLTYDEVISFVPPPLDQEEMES

inhibition at 1 µM (DYRK3 [1]) [%]	inhibition at 1 µM (SGK) [%]	inhibition at 1 µM (PKD1 [2]) [%]	inhibition at 1 µM (NEK6 [3]) [%]	inhibition at 1 µM (SRPK1) [%]	inhibition at 1 µM (AuroraC) [%]	inhibition at 1 µM (MSK1) [%]	inhibition at 1 µM (DYRK3 [4]) [%]	inhibition at 1 µM (PIM3) [%]	inhibition at 1 µM (PKCa) [%]	inhibition at 1 µM (PKD1 [5]) [%]	inhibition at 1 µM (JNK2) [%]	inhibition at 1 µM (NEK6 [6]) [%]	inhibition at 1 µM (CKIIa) [%]	inhibition at 1 µM (PRK2) [%]	inhibition at 1 µM (p38) [%]	inhibition at 1 µM (PLK1) [%]	inhibition at 1 µM (CAMKKB) [%]	inhibition at 1 µM (CDK2) [%]	Structure (SMILES)
-18.2	29.4	6.21	8.99	13.5	6.48														OCCn1cc(-c2cnc3nnn(Cc4ccc5ncccc5c4)c3n2)cn1 [METi, PF-04217903]
						14	11	3	53	47	95	13	-2	16	96	47	16	38	N#CCCNc1nccc(-c2cn(CC(F)F)nc2-c2cnc3[nH]ccc3c2)n1 [RAFi, PF-04880594]
